Laboratory results as given in ChEMBL document CHEMBL6087482, “Discovery of INCB159020, an Orally Bioavailable KRAS G12D Inhibitor” (J Med Chem, 2025).
pIC50: −log10 of the molar value.

Tests used:
[1] = Clearance in Sprague-Dawley rat assessed as hepatic blood flow at 3 mg/kg, po or 1 mg/kg, iv measured after 24 hrs by LC-MS/MS analysis; assay type: ADME, organism-based; settings: in vivo
[2] = Cmax in Sprague-Dawley rat at 3 mg/kg, po or 1 mg/kg, iv measured after 24 hrs by LC-MS/MS analysis; assay type: ADME, organism-based; settings: in vivo
[3] = Drug concentration in mouse plasma xenografted with HPAC cells at 100 mg/kg, po measured after 24 hrs; assay type: ADME, organism-based
[4] = Intrinsic clearance in human liver microsomes at 1 uM measured upto 30 mins in presence of NADPH by LC/MS analysis; assay type: ADME, Microsome; settings: read-out: CLH (converted)
[5] = Oral bioavailability in Sprague-Dawley rat at 3 mg/kg measured after 24 hrs by LC-MS/MS analysis; assay type: ADME, organism-based; settings: in vivo
[6] = Drug concentration in mouse plasma xenografted with HPAC cells at 300 mg/kg, po measured after 24 hrs; assay type: ADME, organism-based
[7] = AUC in Sprague-Dawley rat at 3 mg/kg, po or 1 mg/kg, iv measured after 24 hrs by LC-MS/MS analysis; assay type: ADME, organism-based; settings: in vivo
[8] = Half-life in Non human primate at […], po or 1 mg/kg, iv; assay type: ADME, organism-based; settings: primates, in vivo, dose 1.5 mg/kg
[9] = molecular target: Aurora kinase B (Homo sapiens, UniProt Q96GD4); experiment: Binding affinity to Aurora B (unknown origin) in presence of ATP
Aurora kinase B, sequence (Q96GD4 whole entry): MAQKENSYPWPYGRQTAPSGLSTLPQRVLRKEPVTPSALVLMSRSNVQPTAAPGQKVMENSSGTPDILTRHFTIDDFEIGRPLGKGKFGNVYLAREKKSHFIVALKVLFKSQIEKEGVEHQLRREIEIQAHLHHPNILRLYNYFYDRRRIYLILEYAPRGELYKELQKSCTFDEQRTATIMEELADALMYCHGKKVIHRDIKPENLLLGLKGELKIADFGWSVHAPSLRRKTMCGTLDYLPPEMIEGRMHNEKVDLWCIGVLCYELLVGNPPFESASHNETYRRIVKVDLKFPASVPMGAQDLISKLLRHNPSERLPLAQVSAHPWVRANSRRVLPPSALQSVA

[10] = molecular target: Cytochrome P450 2C9 (Homo sapiens, UniProt P11712); experiment: Inhibition of CYP2C9 (unknown origin); assay type: ADME
Cytochrome P450 2C9, sequence (P11712 whole entry): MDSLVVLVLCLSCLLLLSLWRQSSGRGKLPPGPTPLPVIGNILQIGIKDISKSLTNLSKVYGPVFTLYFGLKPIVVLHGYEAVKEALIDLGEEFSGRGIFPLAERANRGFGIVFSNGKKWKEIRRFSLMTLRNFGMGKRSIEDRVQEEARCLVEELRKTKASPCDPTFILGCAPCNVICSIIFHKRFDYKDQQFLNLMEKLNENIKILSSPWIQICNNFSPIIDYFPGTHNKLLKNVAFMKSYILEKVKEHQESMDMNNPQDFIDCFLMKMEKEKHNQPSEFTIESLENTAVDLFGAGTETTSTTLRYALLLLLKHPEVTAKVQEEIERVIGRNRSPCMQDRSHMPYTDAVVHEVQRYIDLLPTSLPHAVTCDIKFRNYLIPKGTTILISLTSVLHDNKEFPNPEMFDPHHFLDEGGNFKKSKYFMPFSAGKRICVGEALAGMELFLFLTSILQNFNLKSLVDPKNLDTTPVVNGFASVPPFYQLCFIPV

[11] = molecular target: High affinity nerve growth factor receptor (Homo sapiens, UniProt P04629); experiment: Binding affinity to TRKA (unknown origin) in presence of ATP
High affinity nerve growth factor receptor, sequence (P04629 whole entry): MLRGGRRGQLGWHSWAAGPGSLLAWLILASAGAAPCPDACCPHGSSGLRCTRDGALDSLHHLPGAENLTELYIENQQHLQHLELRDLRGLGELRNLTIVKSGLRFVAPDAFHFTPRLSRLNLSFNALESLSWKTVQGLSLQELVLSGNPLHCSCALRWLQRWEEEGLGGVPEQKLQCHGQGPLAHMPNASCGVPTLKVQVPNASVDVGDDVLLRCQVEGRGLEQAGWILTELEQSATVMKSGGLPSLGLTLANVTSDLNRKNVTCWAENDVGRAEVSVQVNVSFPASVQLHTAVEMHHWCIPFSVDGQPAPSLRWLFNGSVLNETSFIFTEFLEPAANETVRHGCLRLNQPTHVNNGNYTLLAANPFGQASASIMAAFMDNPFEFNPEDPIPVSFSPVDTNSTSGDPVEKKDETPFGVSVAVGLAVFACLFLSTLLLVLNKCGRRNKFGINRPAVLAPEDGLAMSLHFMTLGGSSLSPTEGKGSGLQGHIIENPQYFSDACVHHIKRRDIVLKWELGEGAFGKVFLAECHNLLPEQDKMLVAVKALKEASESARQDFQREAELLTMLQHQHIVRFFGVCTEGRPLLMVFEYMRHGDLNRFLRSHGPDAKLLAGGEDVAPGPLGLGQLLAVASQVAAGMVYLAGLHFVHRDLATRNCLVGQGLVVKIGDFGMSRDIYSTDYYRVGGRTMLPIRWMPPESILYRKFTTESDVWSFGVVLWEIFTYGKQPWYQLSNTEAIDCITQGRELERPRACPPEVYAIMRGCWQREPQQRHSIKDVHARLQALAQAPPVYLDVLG

[12] = Apparent permeability across apical to basolateral side in human Caco-2 cells at 50 uM incubated for 120 mins by LC-MS analysis; assay type: ADME, cell-based
[13] = AUC in Non human primate at […], po or 1 mg/kg, iv; assay type: ADME, organism-based; settings: primates, in vivo, dose 1.5 mg/kg
[14] = Solubility of compound in SGF; assay type: physicochemical
[15] = Toxicity in mouse xenografted with human HPAC cells assessed as tolerance at 30 to 300 mg/kg, po measured after 24 hrs; assay type: organism-based; settings: in vivo, dose 30-300 mg/kg
[16] = Cmax in Non human primate at […], po or 1 mg/kg, iv; assay type: ADME, organism-based; settings: primates, in vivo, dose 1.5 mg/kg
[17] = molecular target: Cytochrome P450 3A4 (Homo sapiens, UniProt P08684); experiment: Inhibition of CYP3A4 (unknown origin); assay type: ADME
Cytochrome P450 3A4, sequence (P08684 whole entry): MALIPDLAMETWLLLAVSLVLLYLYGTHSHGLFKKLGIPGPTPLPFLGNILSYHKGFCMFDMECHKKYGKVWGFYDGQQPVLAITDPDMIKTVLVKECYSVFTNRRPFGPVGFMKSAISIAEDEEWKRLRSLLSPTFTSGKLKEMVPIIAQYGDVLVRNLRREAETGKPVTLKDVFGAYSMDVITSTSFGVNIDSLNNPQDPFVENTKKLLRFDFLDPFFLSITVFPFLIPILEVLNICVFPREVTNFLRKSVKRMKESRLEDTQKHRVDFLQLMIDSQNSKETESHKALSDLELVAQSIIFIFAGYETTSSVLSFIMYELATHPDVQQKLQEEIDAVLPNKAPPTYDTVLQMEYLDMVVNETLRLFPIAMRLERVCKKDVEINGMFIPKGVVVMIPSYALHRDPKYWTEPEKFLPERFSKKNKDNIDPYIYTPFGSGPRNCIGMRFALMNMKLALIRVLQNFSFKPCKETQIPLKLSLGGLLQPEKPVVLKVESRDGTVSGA

[18] = molecular target: T1, Cytochrome P450 1A2 (Homo sapiens, UniProt P05177); experiment: Inhibition of CYP1A2 (unknown origin); assay type: ADME
T1 sequence (P05177 whole entry): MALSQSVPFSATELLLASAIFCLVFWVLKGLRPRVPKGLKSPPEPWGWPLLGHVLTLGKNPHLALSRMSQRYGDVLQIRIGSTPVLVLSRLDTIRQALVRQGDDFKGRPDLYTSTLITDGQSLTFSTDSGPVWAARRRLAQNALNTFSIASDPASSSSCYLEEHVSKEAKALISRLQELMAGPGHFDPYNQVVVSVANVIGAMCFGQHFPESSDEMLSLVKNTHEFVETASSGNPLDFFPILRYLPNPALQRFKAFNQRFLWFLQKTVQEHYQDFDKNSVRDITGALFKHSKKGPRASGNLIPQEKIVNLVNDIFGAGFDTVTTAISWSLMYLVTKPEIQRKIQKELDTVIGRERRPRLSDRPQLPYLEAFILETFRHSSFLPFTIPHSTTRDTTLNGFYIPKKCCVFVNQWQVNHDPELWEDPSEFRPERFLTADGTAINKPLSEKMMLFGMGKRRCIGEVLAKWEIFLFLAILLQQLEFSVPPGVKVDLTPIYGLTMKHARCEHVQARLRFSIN

[19] = Solubility of compound in FASSIF; assay type: physicochemical
[20] = Half-life in Sprague-Dawley rat at 3 mg/kg, po or 1 mg/kg, iv measured after 24 hrs by LC-MS/MS analysis; assay type: ADME, organism-based; settings: in vivo
[21] = Oral bioavailability in Non human primate at […]; assay type: ADME, organism-based; settings: primates, in vivo, dose 1.5 mg/kg
[22] = tested on: Cytochrome P450; experiment: Time dependent inhibition of CYP (unknown origin); assay type: ADME, protein assay; settings: human
[23] = tested on: Primates; experiment: Clearance in Non human primate assessed as hepatic blood flow at […], po or 1 mg/kg, iv; assay type: ADME, organism-based; settings: in vivo, dose 1.5 mg/kg
[24] = molecular target: Voltage-gated inwardly rectifying potassium channel KCNH2 (Homo sapiens, UniProt Q12809); experiment: Inhibition of human ERG; assay type: toxicity
Voltage-gated inwardly rectifying potassium channel KCNH2, sequence (Q12809 whole entry): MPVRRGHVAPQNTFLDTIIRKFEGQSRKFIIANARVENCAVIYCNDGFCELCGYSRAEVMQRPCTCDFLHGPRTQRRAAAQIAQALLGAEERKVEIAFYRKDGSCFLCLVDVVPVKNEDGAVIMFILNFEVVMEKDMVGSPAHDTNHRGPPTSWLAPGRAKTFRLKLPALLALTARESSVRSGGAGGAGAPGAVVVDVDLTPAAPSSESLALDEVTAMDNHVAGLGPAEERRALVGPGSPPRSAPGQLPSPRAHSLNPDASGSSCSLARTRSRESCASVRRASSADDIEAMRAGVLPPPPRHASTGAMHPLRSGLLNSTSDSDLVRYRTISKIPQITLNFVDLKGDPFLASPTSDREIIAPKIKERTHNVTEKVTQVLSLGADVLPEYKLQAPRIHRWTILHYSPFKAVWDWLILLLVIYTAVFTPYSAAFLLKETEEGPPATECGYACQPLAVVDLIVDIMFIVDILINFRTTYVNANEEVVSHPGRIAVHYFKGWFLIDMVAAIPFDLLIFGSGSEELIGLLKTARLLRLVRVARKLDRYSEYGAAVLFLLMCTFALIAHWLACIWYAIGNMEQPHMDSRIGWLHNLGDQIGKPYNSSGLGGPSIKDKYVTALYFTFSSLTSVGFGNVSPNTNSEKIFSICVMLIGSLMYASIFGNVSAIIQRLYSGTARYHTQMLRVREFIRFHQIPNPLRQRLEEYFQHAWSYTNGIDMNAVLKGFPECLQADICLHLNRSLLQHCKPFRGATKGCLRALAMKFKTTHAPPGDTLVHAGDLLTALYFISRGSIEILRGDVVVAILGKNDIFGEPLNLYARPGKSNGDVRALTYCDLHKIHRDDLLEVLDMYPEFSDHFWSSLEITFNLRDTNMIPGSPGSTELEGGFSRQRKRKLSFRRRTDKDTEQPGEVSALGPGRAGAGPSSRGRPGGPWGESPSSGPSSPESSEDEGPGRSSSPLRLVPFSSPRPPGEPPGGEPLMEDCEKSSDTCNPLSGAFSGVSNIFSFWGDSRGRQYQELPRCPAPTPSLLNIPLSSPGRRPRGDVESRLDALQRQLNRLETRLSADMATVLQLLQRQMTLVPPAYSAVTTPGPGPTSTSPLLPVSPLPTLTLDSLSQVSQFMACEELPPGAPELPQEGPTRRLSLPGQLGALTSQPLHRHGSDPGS

[25] = molecular target: T2, Cytochrome P450 2B6 (Homo sapiens, UniProt P20813); experiment: Inhibition of CYP2B6 (unknown origin); assay type: ADME
T2 sequence (P20813 whole entry): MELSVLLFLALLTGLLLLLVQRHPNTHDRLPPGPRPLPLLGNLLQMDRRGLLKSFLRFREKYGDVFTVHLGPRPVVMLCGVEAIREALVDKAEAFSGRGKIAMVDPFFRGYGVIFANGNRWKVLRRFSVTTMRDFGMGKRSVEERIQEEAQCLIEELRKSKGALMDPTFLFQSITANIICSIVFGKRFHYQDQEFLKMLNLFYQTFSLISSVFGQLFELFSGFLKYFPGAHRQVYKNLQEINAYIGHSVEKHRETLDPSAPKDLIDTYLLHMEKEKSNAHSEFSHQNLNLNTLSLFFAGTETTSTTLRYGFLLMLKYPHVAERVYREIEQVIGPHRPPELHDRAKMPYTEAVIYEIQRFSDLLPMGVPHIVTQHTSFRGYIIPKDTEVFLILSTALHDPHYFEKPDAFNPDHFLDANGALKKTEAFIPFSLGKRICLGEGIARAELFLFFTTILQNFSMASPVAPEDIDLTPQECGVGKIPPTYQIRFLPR

[26] = molecular target: Cytochrome P450 2D6 (Homo sapiens, UniProt P10635); experiment: Inhibition of CYP2D6 (unknown origin); assay type: ADME
Cytochrome P450 2D6, sequence (P10635 whole entry): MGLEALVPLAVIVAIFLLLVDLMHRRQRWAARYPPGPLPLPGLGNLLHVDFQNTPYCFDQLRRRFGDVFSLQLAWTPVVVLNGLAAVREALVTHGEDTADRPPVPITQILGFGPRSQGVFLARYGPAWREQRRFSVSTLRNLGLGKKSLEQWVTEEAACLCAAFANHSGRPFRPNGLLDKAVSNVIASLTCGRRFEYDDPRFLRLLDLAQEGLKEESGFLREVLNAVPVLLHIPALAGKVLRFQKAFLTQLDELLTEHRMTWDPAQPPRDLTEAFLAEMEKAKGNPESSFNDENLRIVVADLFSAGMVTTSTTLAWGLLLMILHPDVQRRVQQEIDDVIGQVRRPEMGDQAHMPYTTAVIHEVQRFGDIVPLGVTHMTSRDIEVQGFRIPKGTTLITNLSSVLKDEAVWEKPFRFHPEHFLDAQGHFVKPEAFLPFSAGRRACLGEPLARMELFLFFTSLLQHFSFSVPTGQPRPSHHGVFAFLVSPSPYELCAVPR

Structure (SMILES): Cc1cnc(-c2nc3c(F)c(-c4cccc(Cl)c4C)c(CCC#N)cc3c3c2cc([C@@H](C)N2CCOCC2=O)n3[C@H]2[C@H]3CN[C@@H]2C3)cn1
- QH [1]: > 100%
- Cmax [2]: 57 nM
- concentration at 24 h [3]: ~950 nM
- hepatic clearance at 1 µM [4]: 16.7 mL/min/kg
- bioavailability [5]: 27%
- concentration at 24 h [6]: ~8500 nM
- AUC at 24 h [7]: 0.331 µM·h
- half-life [8]: 6.4 h
- pIC50 [9]: 5.24
- pIC50 [10]: < 4.70
- pIC50 [11]: 5.41
- Papp A→B at 2 h, 50 µM [12]: 3.6 ×10⁻⁶ cm/s
- AUC [13]: 0.95 µM·h
- solubility [14]: > 900 µg/mL
- Activity [15]: Non-toxic
- Cmax [16]: 100 nM
- pIC50 [17]: 4.77
- pIC50 [18]: < 4.70
- solubility [19]: > 79 µg/mL
- half-life [20]: 3.8 h
- bioavailability [21]: 42%
- TDI [22]: Not_active
- QH [23]: 37%
- pIC50 [24]: 4.95
- pIC50 [25]: < 4.70
- pIC50 [26]: 5.14
